≈ marks a conversion by molar mass, not a printed value. Read-outs that look alike come from different tables or passages of the source. Positions of bridges follow the written chain, without caps; N, C: chain ends. Residues, ends and D or L forms follow the SMILES beside them. Groups on a side chain read outwards from the residue. Chains are numbered I, II in the order given. *: point of attachment. X2 = NCCCC[C@H](N)C(=O)NCCCC[C@H](NC(=O)[C@@H](N)CCCCN)C(=O)*; X1 = CCCCCCCCCCCCCCCCCCCCCCCC(=O)*; Palmitoyl = CCCCCCCCCCCCCCCC(=O)*
Legend:
Assay type in all cases: cell-based
[1] = test system: Escherichia coli (strain DH5α)
Description: (§1) Antimicrobial activity was assayed against Bacillus subtilis (strain BR151), Escherichia coli (strain DH5α) and Pseudomonas aeruginosa (strain PA01). Microdilution broth method was used to determine the minimal inhibitory concentration (MIC). A colony of bacteria was grown in LB-medium overnight at 37° C. The concentration was quantified by measuring absorbance at 600 nm and diluted to OD600=0.1 (1×10^8 CFU/mL). The samples were prepared as stock solutions of 1 mg mL^−1 in H2O and diluted serially by ⅔ in nutrient LB in a 96-well microtiterplate (Cornstar, polypropylene, untreated). The sample solutions (50 μL) were mixed with the diluted bacterial suspension with an OD600 nm of 0.001 (50 μL). […] The plates were incubated at 37° C. until satisfactory growth (18-24 h). For each test, two columns of the plate were kept for sterility control (SC, broth only) and growth control (GC, broth with bacterial inoculums, no antibiotics). 10 μL of a solution of MTT (0.1% in H2O) was added to each well. The minimal inhibitory concentration (MIC) was defined as the lowest concentration of the antimicrobial substance (peptide dendrimer) that inhibited visible growth of the tested bacteria (yellow) with the unaided eye. For microbiological study the linear peptide LysTyrLysLysAlaLeuLysLysLeuAlaLysLeuLeu (SEQ ID No. 1) was used as reference.
(§2) The AMPD library was tested for their antimicrobial activity against B. subtilis BR151, a Gram-positive bacterium and E. coli DH5α, another Gram-negative bacterium, to cover a broader spectrum of different bacteria. […] Therefore no explicit SAR can be established, but clearly the hydrophobic amino acids Ala and Tyr seem to have a significant influence in reducing activity.

[2] = test system: Bacillus subtilis (strain BR151)
Description: as §1, §2

[3] = test system: Pseudomonas aeruginosa (strain PA01); experiment: microbe, parasite or virus in culture; conditions: strain
Summary of the method: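 Broth microdilution MIC against P. aeruginosa PAO1 in LB: peptides serially diluted by ⅔, bacteria added at OD600 0.001 and incubated 18–24 h at 37 °C. MTT added; MIC is the lowest concentration preventing visible growth.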

CC(C)C[C@H](NC(=O)[C@H](CC(C)C)NC(=O)[C@H](CCCCNC(=O)[C@H](CCCCN)NC(=O)[C@H](CCCCN)NC(=O)[C@H](CCCCNC(=O)[C@H](CC(C)C)NC(=O)[C@H](CC(C)C)NC(=O)[C@H](CCCCNC(=O)[C@H](CCCCN)NC(=O)[C@@H](N)CCCCN)NC(=O)[C@H](CCCCN)NC(=O)[C@@H](N)CCCCN)NC(=O)[C@H](CC(C)C)NC(=O)[C@H](CC(C)C)NC(=O)[C@H](CCCCNC(=O)[C@H](CCCCN)NC(=O)[C@@H](N)CCCCN)NC(=O)[C@H](CCCCN)NC(=O)[C@@H](N)CCCCN)NC(=O)[C@H](CCCCN)NC(=O)[C@H](CCCCN)NC(=O)[C@H](CCCCNC(=O)[C@H](CC(C)C)NC(=O)[C@H](CC(C)C)NC(=O)[C@H](CCCCNC(=O)[C@H](CCCCN)NC(=O)[C@@H](N)CCCCN)NC(=O)[C@H](CCCCN)NC(=O)[C@@H](N)CCCCN)NC(=O)[C@H](CC(C)C)NC(=O)[C@H](CC(C)C)NC(=O)[C@H](CCCCNC(=O)[C@H](CCCCN)NC(=O)[C@@H](N)CCCCN)NC(=O)[C@H](CCCCN)NC(=O)[C@@H](N)CCCCN)C(N)=O [MSt-179, (KK)8(KLL)4(KKK)2(KLL)] (I: H-KKK([Lys-Lys])LLKKKKLL-NH2 / II: H-KKK([Lys-Lys])LLKKK / III: H-KKK([Lys-Lys])LL / IV: H-KKK([Lys-Lys])LL; amide I:6-IV:C, I:9-II:C, II:6-III:C; N-terminus assumed)
MIC E. coli DH5α ([1]; DH5α): >66 µg/mL

CCCCCCCCCCCCCCCC(=O)NCCCC[C@H](NC(=O)[C@H](CC(C)C)NC(=O)[C@H](CCCCN)NC(=O)[C@H](CCCCNC(=O)[C@H](CC(C)C)NC(=O)[C@H](CCCCN)NC(=O)[C@H](CCCCNC(=O)[C@H](CC(C)C)NC(=O)[C@@H](N)CCCCN)NC(=O)[C@H](CC(C)C)NC(=O)[C@@H](N)CCCCN)NC(=O)[C@H](CC(C)C)NC(=O)[C@H](CCCCN)NC(=O)[C@H](CCCCNC(=O)[C@H](CC(C)C)NC(=O)[C@@H](N)CCCCN)NC(=O)[C@H](CC(C)C)NC(=O)[C@@H](N)CCCCN)C(N)=O [MSt-302, (KL)4(KKL)2(KKLKC16)] (I: H-KLK([Leu-Lys])KLKKLK(Palmitoyl)-NH2 / II: H-KLK([Leu-Lys])KL; amide I:6-II:C)
MIC E. coli DH5α ([1]; DH5α): 12 µg/mL (≈ 4.88 µM)

(KL)32(KKL)16(KKLCxKL)8(KKL)4(KKL)2KKL [CCS-15]
MIC B. subtilis BR151 ([2]; LB medium): 26 µg/mL
MIC E. coli DH5α ([1]; LB medium): 8 µg/mL

CCCCCCCCCCCCCCCCCCCCCCCC(=O)NCCCC[C@H](NC(=O)[C@H](CC(C)C)NC(=O)[C@H](CCCCN)NC(=O)[C@H](CCCCNC(=O)[C@H](CC(C)C)NC(=O)[C@H](CCCCN)NC(=O)[C@H](CCCCNC(=O)[C@H](CC(C)C)NC(=O)[C@@H](N)CCCCN)NC(=O)[C@H](CC(C)C)NC(=O)[C@@H](N)CCCCN)NC(=O)[C@H](CC(C)C)NC(=O)[C@H](CCCCN)NC(=O)[C@H](CCCCNC(=O)[C@H](CC(C)C)NC(=O)[C@@H](N)CCCCN)NC(=O)[C@H](CC(C)C)NC(=O)[C@@H](N)CCCCN)C(N)=O [MSt-287, (KL)4(KKL)2(KKLKC24)] (I: H-KLK([Leu-Lys])KLKKLK(X1)-NH2 / II: H-KLK([Leu-Lys])KL; amide I:6-II:C)
MIC B. subtilis BR151 ([2]; strain BR151): 26 µg/mL (≈ 10.1 µM)
MIC E. coli DH5α ([1]; DH5α): 13 µg/mL (≈ 5.06 µM)

CC(C)C[C@H](NC(=O)[C@H](CCCCNC(=O)[C@H](CCCCN)NC(=O)[C@H](CC(C)C)NC(=O)[C@H](CCCCNC(=O)[C@H](CCCCN)NC(=O)[C@H](CC(C)C)NC(=O)[C@H](CCCCNC(=O)[C@H](CCCCN)NC(=O)[C@@H](N)CC(C)C)NC(=O)[C@H](CCCCN)NC(=O)[C@@H](N)CC(C)C)NC(=O)[C@H](CCCCN)NC(=O)[C@H](CC(C)C)NC(=O)[C@H](CCCCNC(=O)[C@H](CCCCN)NC(=O)[C@@H](N)CC(C)C)NC(=O)[C@H](CCCCN)NC(=O)[C@@H](N)CC(C)C)NC(=O)[C@H](CCCCN)NC(=O)[C@H](CC(C)C)NC(=O)[C@H](CCCCNC(=O)[C@H](CCCCN)NC(=O)[C@H](CC(C)C)NC(=O)[C@H](CCCCNC(=O)[C@H](CCCCN)NC(=O)[C@@H](N)CC(C)C)NC(=O)[C@H](CCCCN)NC(=O)[C@@H](N)CC(C)C)NC(=O)[C@H](CCCCN)NC(=O)[C@H](CC(C)C)NC(=O)[C@H](CCCCNC(=O)[C@H](CCCCN)NC(=O)[C@@H](N)CC(C)C)NC(=O)[C@H](CCCCN)NC(=O)[C@@H](N)CC(C)C)C(=O)N[C@@H](CCCCN)C(N)=O [MSt-199, (LK)8(KLK)4(KLK)2(KLK)] (I: H-LKK([Lys-Leu])LKKLKKLK-NH2 / II: H-LKK([Lys-Leu])LKKLK / III: H-LKK([Lys-Leu])LK / IV: H-LKK([Lys-Leu])LK; amide I:6-IV:C, I:9-II:C, II:6-III:C)
MIC P. aeruginosa PAO1 [3]: 9 µg/mL (≈ 1.98 µM)
MIC B. subtilis BR151 ([2]; strain BR151): 3 µg/mL (≈ 0.662 µM)

CCCCCCCCCCCCCCCC(=O)NCCCC[C@H](NC(=O)[C@H](CC(C)C)NC(=O)[C@H](CCCCN)NC(=O)[C@H](CCCCNC(=O)[C@H](CC(C)C)NC(=O)[C@H](CCCCN)NC(=O)[C@H](CCCCNC(=O)[C@H](CC(C)C)NC(=O)[C@H](CCCCN)NC(=O)[C@H](CCCCNC(=O)[C@H](CC(C)C)NC(=O)[C@@H](N)CCCCN)NC(=O)[C@H](CC(C)C)NC(=O)[C@@H](N)CCCCN)NC(=O)[C@H](CC(C)C)NC(=O)[C@H](CCCCN)NC(=O)[C@H](CCCCNC(=O)[C@H](CC(C)C)NC(=O)[C@@H](N)CCCCN)NC(=O)[C@H](CC(C)C)NC(=O)[C@@H](N)CCCCN)NC(=O)[C@H](CC(C)C)NC(=O)[C@H](CCCCN)NC(=O)[C@H](CCCCNC(=O)[C@H](CC(C)C)NC(=O)[C@H](CCCCN)NC(=O)[C@H](CCCCNC(=O)[C@H](CC(C)C)NC(=O)[C@@H](N)CCCCN)NC(=O)[C@H](CC(C)C)NC(=O)[C@@H](N)CCCCN)NC(=O)[C@H](CC(C)C)NC(=O)[C@H](CCCCN)NC(=O)[C@H](CCCCNC(=O)[C@H](CC(C)C)NC(=O)[C@@H](N)CCCCN)NC(=O)[C@H](CC(C)C)NC(=O)[C@@H](N)CCCCN)C(N)=O [MSt-301, (KL)8(KKL)4(KKL)2(KKLKC16)] (I: H-KLK([Leu-Lys])KLKKLKKLK(Palmitoyl)-NH2 / II: H-KLK([Leu-Lys])KLKKL / III: H-KLK([Leu-Lys])KL / IV: H-KLK([Leu-Lys])KL; amide I:6-IV:C, I:9-II:C, II:6-III:C)
MIC P. aeruginosa PAO1 [3]: 11 µg/mL (≈ 2.24 µM)
MIC E. coli DH5α ([1]; DH5α): 8 µg/mL (≈ 1.63 µM)

CC(C)C[C@H](NC(=O)[C@H](CCCCNC(=O)[C@H](CC(C)C)NC(=O)[C@H](CCCCNC(=O)[C@H](CCCCN)NC(=O)[C@H](CCCCNC(=O)[C@@H](N)CCCCN)NC(=O)[C@@H](N)CCCCN)NC(=O)[C@H](CCCCN)NC(=O)[C@H](CCCCNC(=O)[C@@H](N)CCCCN)NC(=O)[C@@H](N)CCCCN)NC(=O)[C@H](CC(C)C)NC(=O)[C@H](CCCCNC(=O)[C@H](CCCCN)NC(=O)[C@H](CCCCNC(=O)[C@@H](N)CCCCN)NC(=O)[C@@H](N)CCCCN)NC(=O)[C@H](CCCCN)NC(=O)[C@H](CCCCNC(=O)[C@@H](N)CCCCN)NC(=O)[C@@H](N)CCCCN)C(N)=O [MSt-148, (K)8(KK)4(KL)2(KL)NH2] (I: H-KK(Lys)KK([Lys-X2])LKL-NH2 / II: H-KK(Lys)KK([Lys-X2])L; amide I:6-II:C; N-terminus assumed)
MIC B. subtilis BR151 ([2]; strain BR151): 12 µg/mL (≈ 4.3 µM)
MIC E. coli DH5α ([1]; DH5α): >90 µg/mL

CC(C)C[C@H](NC(=O)[C@H](CCCCN)NC(=O)[C@H](CC(C)C)NC(=O)[C@H](CCCCNC(=O)[C@H](CC(C)C)NC(=O)[C@H](CCCCN)NC(=O)[C@H](CC(C)C)NC(=O)[C@H](CCCCNC(=O)[C@H](CC(C)C)NC(=O)[C@H](CCCCN)NC(=O)[C@H](CCCCNC(=O)[C@H](CC(C)C)NC(=O)[C@@H](N)CCCCN)NC(=O)[C@H](CC(C)C)NC(=O)[C@@H](N)CCCCN)NC(=O)[C@H](CC(C)C)NC(=O)[C@H](CCCCN)NC(=O)[C@H](CCCCNC(=O)[C@H](CC(C)C)NC(=O)[C@@H](N)CCCCN)NC(=O)[C@H](CC(C)C)NC(=O)[C@@H](N)CCCCN)NC(=O)[C@H](CC(C)C)NC(=O)[C@H](CCCCN)NC(=O)[C@H](CC(C)C)NC(=O)[C@H](CCCCNC(=O)[C@H](CC(C)C)NC(=O)[C@H](CCCCN)NC(=O)[C@H](CCCCNC(=O)[C@H](CC(C)C)NC(=O)[C@@H](N)CCCCN)NC(=O)[C@H](CC(C)C)NC(=O)[C@@H](N)CCCCN)NC(=O)[C@H](CC(C)C)NC(=O)[C@H](CCCCN)NC(=O)[C@H](CCCCNC(=O)[C@H](CC(C)C)NC(=O)[C@@H](N)CCCCN)NC(=O)[C@H](CC(C)C)NC(=O)[C@@H](N)CCCCN)C(N)=O [YGO-011, (KL)8(KKL)4(KLKL)2(KLKL)] (I: H-KLK([Leu-Lys])KLKLKLKLKL-NH2 / II: H-KLK([Leu-Lys])KLKLKL / III: H-KLK([Leu-Lys])KL / IV: H-KLK([Leu-Lys])KL; amide I:6-IV:C, I:10-II:C, II:6-III:C)
MIC P. aeruginosa PAO1 [3]: 3 µg/mL (≈ 0.616 µM)
